Results on one molecule are retold here after US10485772B2, “Compositions for modulating cancer stem cells and uses therefor” (University of Canberra, priority 2014, dated 2019).

Assay [1] deals with MCF-7 cells (mammospheres). Briefly: Mammosphere assay in MCF-IM model. It is filed as cell-based, human. Particulars: bisindolylmaleimide-I 1 μM for 1 hr prior to PMA for 6 days. The protocol: The following mammosphere culture media components were purchased from StemCell Technologies Inc., BC, Canada: Mammocult Basal medium (Human) (catalogue number-05621), Mammocult Proliferation Supplements (Human) (catalogue number-05622), heparin (catalogue number-07904) and hydrocortisone (catalogue number-[…]). Hydrocortisone powder was freshly dissolved into mammocult basal medium to get 10^−4M solution on the day of experiment. 50 mL of
Mammocult complete media was then prepared by addition of 45 mL Mammocult basal medium, 5 mL mammocult proliferation supplements, 100 μL of the 0.2% heparin stock, 500 μL of 10^−4M stock of hydrocortisone and 50 μL of the PNS. Mammocult complete media was either used on same day or stored for not more than 7 days at 4° C.
MCF-7 cells were grown in a 175 cm^2 cell culture flask and harvested using a cell scraper (Zellschaber, Switzerland) or FACS sorted as specified below. Importantly trypsin treatment was never used for harvesting cells as it interferes with the mammosphere assay. Harvested cells were then re-suspended in 1 mL mammocult complete media and centrifuged at 500×g for 3 minutes at 20° C. The cell pellet was then re-suspended in 1 mL mammocult complete media before counting the cells on the Vi-CELL counter. Cell dilutions were then prepared to stain 40,000 cells/2 mL and 2 mL of cells were seeded in the 6 well-ultra low adherent, flat bottom plates (Costar, Corning Inc, Corning, N.Y., USA). Cells were either stimulated or not treated according to the experimental protocol and incubated at 37° C., under 5% CO2 for 7 days in a Hepa-Filtered Infrared (IR) Incubator (Forma Scientific Inc., Materietta, Ohio). Mammospheres larger than 60 μm were counted per well on day 7 and pictures were taken with an Olympus microscope. All the mammosphere assays were performed in duplicate wells and the entire procedure was repeated at least twice.
Mammosphere culture media components were purchased from StemCell Technologies and mammosphere assays were performed as recommended by the manufacturer's guidelines. Briefly, 40,000 cells/2 ml cell dilutions were then prepared and 2 ml of cells were seeded in the 6 well-ultralow adherent, flat bottom plates (Costar). Mammospheres larger than 60 μm were counted per well on day 7 and pictures were taken.

Assay [2] concerns PKC-θ chromatin association at CSC inducible gene promoters (uPAR, CD44). Briefly: ChIP assay with anti-PKC-θ antibodies in MCF-IM model. The class given is cell-based, human. The method, then:
Between 1-5×10^6 Cells were harvested following various treatments according to the experimental requirement and re-suspended in 10 mL DMEM completer media at room temperature after counting then at Vi-CELL counter. Cells were then cross linked with freshly prepared 1% paraformaldehyde (PFA) (Analytical UNIVAR, Seattle, Wash.) for 10 minutes at room temperature with continuous but slow rotations on rotary wheel. Next, the reaction was quenched by the addition of 2M glycine solution (AnalaR, Merck, Darmstadt, Germany) to a get a final concentration of 125 mM and mixed further for 10 minutes at room temperature on the rotary wheel. Cells were then washed three times with 10 mL ice cold PBS and the cell pellet was either snap frozen on dry ice or used immediately afterwards. SDS Lysis Buffer (Upstate Biotechnology, Billerica, Mass.) was prepared by addition of 1× complete protease inhibitor solution (1 tablet dissolved in 1 mL DEPC water) (Roche Diagnostics, Mannheim, Germany) and cell pellet was then re-suspended in 250 μL of the in the SDS lysis buffer for 10 minutes at room temperature. Cells were sonicated (10 sec pulses for 2 minutes on 1 liter ice cold water mixed with ice, 70% maximum output) to shear the chromatin to obtain an average DNA fragment size of 250-500 bp using a Cole Palmer Ultrasonic processor (Cole Plamer, Vernon Hills, Ill.). […]

With `CN(C)CCCn1cc(C2=C(c3c[nH]c4ccccc34)C(=O)NC2=O)c2ccccc21` [bisindolylmaleimide-I], the mammosphere formation result was “reduce mammosphere formation” in assay [1]; “inhibition of EMT and CSC formation” in assay [1] (listed as Broad spectrum PKC pathway inhibitor). Further, the “PKC-θ chromatin association across the uPAR promoter (ChIP)” value in assay [2] (MCF-IM model, bisindolylmaleimide-I 1 μM for 1 hr, then PMA for 60 hours) was “reduces its chromatin association across the uPAR promoter”. Also, the “binding of PKC-θ on the CD44 gene promoter (ChIP)” value in assay [2] (as worded in Example 13) is listed as “reduction of binding of PKC-θ on the CD44 gene promoter”.
